According to patent US8362249B2, “CXCR3 receptor antagonists” (Boehringer Ingelheim International GmbH, priority 2009, dated 2013):

Each compound was assayed against CXCR3 (Macaca fascicularis, UniProt A0A2K5UV19) (assay: functional cellular assay measuring calcium flux in CXCR3 transfected cells (block of CXCR3/IP-10 interaction)). Conditions: IP-10 induced intracellular calcium flux; Cyno-CHO cells stably expressing recombinant CXCR3 and G-alpha-16.
CXCR3, sequence (A0A2K5UV19 entry or part of it): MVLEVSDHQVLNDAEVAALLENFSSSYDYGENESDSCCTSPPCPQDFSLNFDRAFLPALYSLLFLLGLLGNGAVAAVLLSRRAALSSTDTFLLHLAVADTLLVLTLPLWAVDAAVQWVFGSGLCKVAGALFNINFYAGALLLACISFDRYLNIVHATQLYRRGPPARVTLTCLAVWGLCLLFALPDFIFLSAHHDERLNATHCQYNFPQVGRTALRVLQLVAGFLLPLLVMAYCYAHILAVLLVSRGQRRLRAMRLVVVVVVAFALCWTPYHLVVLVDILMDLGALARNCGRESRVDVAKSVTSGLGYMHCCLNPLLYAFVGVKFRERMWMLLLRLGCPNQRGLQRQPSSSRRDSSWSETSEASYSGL
Format: cell-based
Method: Compounds are assessed for the ability to block the interaction of CXCR3 and IP-10 in a functional cellular assay measuring calcium flux in CXCR3 transfected cells.
Cyno-CHO cells, stably expressing recombinant CXCR3 and G-alpha-16 are grown in F12 medium (Mediatech #45000-360) supplemented with 10% (V/V) FBS (Mediatech #35-01500), 1% Geneticin (Invitrogen #10131-027) and 0.2% Zeocin (Invitrogen #R250-05). The cells are spun down and re-suspended in growth media to a concentration of 4.8 E5 cells/mL. 25 microL of cell suspension is added to each well of a BD-384-well TC treated plate, providing 12,000 cells/well. The plate is incubated at 37° C./5% CO2 overnight. On the day of the assay, the plates are removed, the media is flicked out and 25 microL of Ca-4 dye in assay buffer (HBSS, 10 mM HEPES ph 7.4), containing 2 mM probenacid is added to each well. The cell assay plates are then incubated at 37° C./5% CO2 for one hour.
Test compounds are dissolved in DMSO and diluted to 1.045 mM in DMSO. Just prior to assay, 2.75 microL of appropriately diluted test compound are added to each well of a 384 well plate containing 45 microL of HBSS buffer. After mixing, 5 microL of diluted compound are added to each well of the cell assay plate for a final assay concentration of 10 microM. The plate is incubated at room temperature for 15 min. 10 microL of IP-10 stock solution in HBSS (4× EC80 concentration) are added to each well of the cell assay plate except those cells reserved as blank wells containing buffer only. Intracellular calcium flux is recorded on the HAMAMTSU FDSS6000, using excitation at 480 nm and emission at 540 nm. Data are analyzed using Activity Base software.
In general, the preferred potency range (IC50) of compounds in the above assay is between 1 nM to 3 μM, and the most preferred potency range is 1 nM to 20 nM.
With COc1ccc(NC(=O)c2ccccc2N2CCN(C(=O)Cn3nc(C)cc3C)CC2)cn1 [2-{4-[2-(3,5-Dimethyl-pyrazol-1-yl)-acetyl]-piperazin-1-yl}-N-(6-methoxy-pyridin-3-yl)-benzamide] the IC50 was 5.9 nM.
Cc1ccc(NC(=O)c2ccccc2N2CCN(C(=O)Cn3nc(C)cc3C)CC2)cn1 [2-{4-[2-(3,5-Dimethyl-pyrazol-1-yl)-acetyl]-piperazin-1-yl}-N-(6-methyl-pyridin-3-yl)-benzamide] was tested, and the IC50 was 5.3 nM.
In the case of Cc1cc(C)n(CC(=O)N2CCN(c3ccccc3C(=O)Nc3ccc(N4CCOCC4)nc3)CC2)n1 [2-{4-[2-(3,5-Dimethyl-pyrazol-1-yl)-acetyl]-piperazin-1-yl}-N-(6-morpholin-4-yl-pyridin-3-yl)-benzamide], the IC50 is reported as 12.5 nM.
In the case of Cc1cc(C)n(CC(=O)N2CCN(c3ccccc3C(=O)Nc3ccc(Oc4ccccc4)nc3)CC2)n1 [2-{4-[2-(3,5-Dimethyl-pyrazol-1-yl)-acetyl]-piperazin-1-yl}-N-(6-phenoxy-pyridin-3-yl)-benzamide], the IC50 is reported as 10 nM.
Cc1cc(C)n(CC(=O)N2CCN(c3ccccc3C(=O)Nc3ccc(-c4ccccc4)nc3)CC2)n1 [2-{4-[2-(3,5-Dimethyl-pyrazol-1-yl)-acetyl]-piperazin-1-yl}-N-(6-phenyl-pyridin-3-yl)-benzamide] gave an IC50 of 11.5 nM.
Cc1cc(C)n(CC(=O)N2CCN(c3ccccc3C(=O)Nc3ccc(C(F)(F)F)nc3)CC2)n1 [2-{4-[2-(3,5-Dimethyl-pyrazol-1-yl)-acetyl]-piperazin-1-yl}-N-(6-trifluoromethyl-pyridin-3-yl)-benzamide] gave an IC50 of 11 nM.
With Cc1cc(C)n(CC(=O)N2CCN(c3ccccc3C(=O)Nc3ccnc(OCC(F)(F)F)c3)CC2)n1 [2-{4-[2-(3,5-Dimethyl-pyrazol-1-yl)-acetyl]-piperazin-1-yl}-N-[2-(2,2,2-trifluoro-ethoxy)-pyridin-4-yl]-benzamide] the IC50 was 8.8 nM.
For Cc1cc(C)n(CC(=O)N2CCN(c3ccccc3C(=O)Nc3ccnc(N4CCN(C)CC4)c3)CC2)n1 [2-{4-[2-(3,5-Dimethyl-pyrazol-1-yl)-acetyl]-piperazin-1-yl}-N-[2-(4-methyl-piperazin-1-yl)-pyridin-4-yl]-benzamide], the IC50 was 14 nM.
With Cc1cc(C)n(CC(=O)N2CCN(c3ccccc3C(=O)Nc3ccc4cnccc4c3)CC2)n1 [2-{4-[2-(3,5-Dimethyl-pyrazol-1-yl)-acetyl]-piperazin-1-yl}-N-isoquinolin-6-yl-benzamide] the IC50 was 13 nM.
Cc1cc(C)n(CC(=O)N2CCN(c3ccccc3C(=O)Nc3ccccc3)CC2)n1 [2-{4-[2-(3,5-Dimethyl-pyrazol-1-yl)-acetyl]-piperazin-1-yl}-N-phenyl-benzamide] was tested, and the IC50 was 13 nM.
For Cc1cc(C)n(CC(=O)N2CCN(c3ccccc3C(=O)Nc3ccnnc3)CC2)n1 [2-{4-[2-(3,5-Dimethyl-pyrazol-1-yl)-acetyl]-piperazin-1-yl}-N-pyridazin-4-yl-benzamide], the IC50 was 17 nM.
With Cc1cc(C)n(CC(=O)N2CCN(c3ccccc3C(=O)Nc3cccnc3)CC2)n1 [2-{4-[2-(3,5-Dimethyl-pyrazol-1-yl)-acetyl]-piperazin-1-yl}-N-pyridin-3-yl-benzamide] the IC50 was 6.6 nM.
With Cc1cc(C)n(CC(=O)N2CCN(c3ccccc3C(=O)Nc3ccncc3)CC2)n1 [2-{4-[2-(3,5-Dimethyl-pyrazol-1-yl)-acetyl]-piperazin-1-yl}-N-pyridin-4-yl-benzamide] the IC50 was 4.7 nM.
Cc1cc(C)n(CC(=O)N2CCN(c3ccccc3C(=O)Nc3cnc4ccccc4c3)CC2)n1 [2-{4-[2-(3,5-Dimethyl-pyrazol-1-yl)-acetyl]-piperazin-1-yl}-N-quinolin-3-yl-benzamide] showed an IC50 of 4.8 nM.
In the case of Cc1cc(C)n(CC(=O)N2CCN(c3ccccc3C(=O)Nc3ccc4ncccc4c3)CC2)n1 [2-{4-[2-(3,5-Dimethyl-pyrazol-1-yl)-acetyl]-piperazin-1-yl}-N-quinolin-6-yl-benzamide], the IC50 is reported as 11.5 nM.
Compound Cc1cc(C)n(CC(=O)N2CCN(c3ccccc3C(=O)Nc3nccs3)CC2)n1 [2-{4-[2-(3,5-Dimethyl-pyrazol-1-yl)-acetyl]-piperazin-1-yl}-N-thiazol-2-yl-benzamide] has an IC50 of 13 nM.
Compound Cn1c(=O)n(CC(=O)N2CCN(c3ccccc3C(=O)Nc3ccncc3)CC2)c2ccccc21 [2-{4-[2-(3-Methyl-2-oxo-2,3-dihydro-benzoimidazol-1-yl)-acetyl]-piperazin-1-yl}-N-pyridin-4-yl-benzamide] has an IC50 of 4 nM.
Cc1nn(CC(=O)N2CCN(c3ccccc3C(=O)Nc3ccncc3)CC2)c(=O)c2ccccc12 [2-{4-[2-(4-Methyl-1-oxo-1H-phthalazin-2-yl)-acetyl]-piperazin-1-yl}-N-pyridin-4-yl-benzamide] was tested, and the IC50 was 5.4 nM.
In the case of O=C(Nc1ccncc1)c1ccccc1N1CCN(C(=O)Cn2cnc3ccccc3c2=O)CC1 [2-{4-[2-(4-Oxo-4H-quinazolin-3-yl)-acetyl]-piperazin-1-yl}-N-pyridin-4-yl-benzamide], the IC50 is reported as 3.4 nM.
With CN(CC(=O)N1CCN(c2ccccc2C(=O)Nc2ccncc2)CC1)C(=O)c1ccccc1 [2-{4-[2-(Benzoyl-methyl-amino)-acetyl]-piperazin-1-yl}-N-pyridin-4-yl-benzamide] the IC50 was 8.4 nM.
Work on COc1cc(NC(=O)c2ccccc2N2CCN(C(=O)Cn3nc(C)cc3C)[C@@H](C)C2)ccn1 [2-{(S)-4-[2-(3,5-Dimethyl-pyrazol-1-yl)-acetyl]-3-methyl-piperazin-1-yl}-N-(2-methoxy-pyridin-4-yl)-benzamide] yielded an IC50 of 21 nM.
COc1ccc(C(=O)NCC(=O)N2CCN(c3ccccc3C(=O)Nc3ccncc3)CC2)cc1OC [3,4-Dimethoxy-N-(2-oxo-2-{4-[2-(pyridin-4-ylcarbamoyl)-phenyl]-piperazin-1-yl}-ethyl)-benzamide] was tested, and the IC50 was 4.6 nM.
Work on COc1ccc(C(=O)NCC(=O)N2CCN(c3ccccc3C(=O)Nc3ccccc3)CC2)cc1OC [3,4-Dimethoxy-N-{2-oxo-2-[4-(2-phenylcarbamoyl-phenyl)-piperazin-1-yl]-ethyl}-benzamide] yielded an IC50 of 8.1 nM.
Work on Cc1cc(C)n(CC(=O)N2CCN(c3ccccc3NC(=O)c3cccc(Cl)c3)CC2)n1 [3-Chloro-N-(2-{4-[2-(3,5-dimethyl-pyrazol-1-yl)-acetyl]-piperazin-1-yl}-phenyl)-benzamide] yielded an IC50 of 4.2 nM.
With Cc1cc(C)n(CC(=O)N2CC=C(c3ccc(Cl)cc3NC(=O)c3cccc(Cl)c3)CC2)n1 [3-Chloro-N-(5-chloro-2-{1-[2-(3,5-dimethyl-pyrazol-1-yl)-acetyl]-1,2,3,6-tetrahydro-pyridin-4-yl}-phenyl)-benzamide] the IC50 was 7 nM.
With O=C(Nc1cc(Cl)cnc1N1CCN(C(=O)CN2CCCCC2=O)CC1)c1cccc(Cl)c1 [3-Chloro-N-(5-chloro-2-{4-[2-(2-oxo-piperidin-1-yl)-acetyl]-piperazin-1-yl}-pyridin-3-yl)-benzamide] the IC50 was 7.7 nM.
Cc1cc(C)n(CC(=O)N2CCCN(c3ncc(Cl)cc3NC(=O)c3cccc(Cl)c3)CC2)n1 [3-Chloro-N-(5-chloro-2-{4-[2-(3,5-dimethyl-pyrazol-1-yl)-acetyl]-[1,4]diazepan-1-yl}-pyridin-3-yl)-benzamide] gave an IC50 of 15 nM.
Work on Cc1cc(C)n(CC(=O)N2CCN(c3ncc(Cl)cc3NC(=O)c3cccc(Cl)c3)CC2)n1 [3-Chloro-N-(5-chloro-2-{4-[2-(3,5-dimethyl-pyrazol-1-yl)-acetyl]-piperazin-1-yl}-pyridin-3-yl)-benzamide] yielded an IC50 of 11.5 nM.
Cc1nn(CC(=O)N2CCCN(c3ncc(Cl)cc3NC(=O)c3cccc(Cl)c3)CC2)c(C)c1Cl [3-Chloro-N-(5-chloro-2-{4-[2-(4-chloro-3,5-dimethyl-pyrazol-1-yl)-acetyl]-[1,4]diazepan-1-yl}-pyridin-3-yl)-benzamide] showed an IC50 of 15 nM.
In the case of O=C(Nc1cc(Cl)cnc1N1CCCN(C(=O)CN2CCCCC2)CC1)c1cccc(Cl)c1 [3-Chloro-N-{5-chloro-2-[4-(2-piperidin-1-yl-acetyl)-[1,4]diazepan-1-yl]-pyridin-3-yl}-benzamide], the IC50 is reported as 3 nM.
COc1ccc(C(=O)NCC(=O)N2CCN(c3ccccc3C(=O)Nc3cccnc3)CC2)cc1F [3-Fluoro-4-methoxy-N-(2-oxo-2-{4-[2-(pyridin-3-ylcarbamoyl)-phenyl]-piperazin-1-yl}-ethyl)-benzamide] showed an IC50 of 19.5 nM.
Compound COc1ccc(C(=O)NCC(=O)N2CCN(c3ccccc3C(=O)Nc3ccncc3)CC2)cc1F [3-Fluoro-4-methoxy-N-(2-oxo-2-{4-[2-(pyridin-4-ylcarbamoyl)-phenyl]-piperazin-1-yl}-ethyl)-benzamide] has an IC50 of 4.2 nM.
COc1ccc(C(=O)N(C)CC(=O)N2CCN(c3ccccc3C(=O)Nc3ccncc3)CC2)cc1F [3-Fluoro-4-methoxy-N-methyl-N-(2-oxo-2-{4-[2-(pyridin-4-ylcarbamoyl)-phenyl]-piperazin-1-yl}-ethyl)-benzamide] was tested, and the IC50 was 15 nM.
Cc1cc(C)n(CC(=O)N2CCN(c3ccccc3NC(=O)c3ccc(Cl)cc3)CC2)n1 [4-Chloro-N-(2-{4-[2-(3,5-dimethyl-pyrazol-1-yl)-acetyl]-piperazin-1-yl}-phenyl)-benzamide] showed an IC50 of 4.7 nM.
